Assay results as given in ChEMBL document CHEMBL1201862, “PubChem BioAssay data set” (2004).
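Results reflect a 48-hour exposure of cells in 96-well plates to compound at five concentrations. Here, GI50 denotes the concentration required for 50% inhibition of growth.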 Calls of active or inactive are those of the source. Rule as the data show it: active = GI50 up to about 1.1 µM and inactive = higher.

What was measured:
Experiment in all cases: NCI-60 cell line screen, 48 h
NCI-H226 = tested on: NCI-H226
NCI-H23 = tested on: NCI-H23
SN12C = tested on: SN12C
NCI-H460 = tested on: NCI-H460
HT-29 = tested on: HT-29
NCI-H522 = tested on: NCI-H522
CAKI-1 = tested on: CAKI-1
IGROV-1 = tested on: IGROV-1
OVCAR-3 = tested on: OVCAR-3
KM-20L2 = tested on: KM-20L2
K562 = tested on: K562
UACC-257 = tested on: UACC-257
ACHN = tested on: ACHN
LXFL 529 = tested on: LXFL 529
TK-10 = tested on: TK-10
HCT-116 = tested on: HCT-116
UACC-62 = tested on: UACC-62

Measured: GI50

CCOc1ccccc1NC(=O)C1=C(C)NC(C)=C(C(=O)Nc2ccccc2OCC)C1c1ccc(NC(C)=O)cc1
inactive: NCI-H226 27.7 µM | NCI-H23 31 µM | SN12C 30.2 µM | NCI-H460 35.7 µM | HT-29 40.6 µM | NCI-H522 6.25 µM | CAKI-1 17.2 µM | IGROV-1 47.4 µM | OVCAR-3 45.3 µM | KM-20L2 25.8 µM | K562 37.1 µM | UACC-257 23.6 µM | ACHN 22.4 µM | LXFL 529 47.6 µM | TK-10 47.6 µM

N#Cc1c2c(c(N=P(c3ccccc3)(c3ccccc3)c3ccccc3)n3c1nc1ccccc13)CCCC2
inactive: NCI-H226 3.68 µM | SN12C 13.1 µM | NCI-H460 13.3 µM | HT-29 14.7 µM | NCI-H522 14.3 µM | CAKI-1 30 µM | IGROV-1 29.2 µM | HCT-116 17.6 µM | OVCAR-3 15.3 µM | KM-20L2 17.4 µM | K562 4.76 µM | UACC-257 15.5 µM | ACHN 15.7 µM | LXFL 529 20.6 µM | UACC-62 12.1 µM

O=P(Oc1ccc2ccccc2c1)(N1CC1)N1CC1
inactive: NCI-H226 16.2 µM | NCI-H23 4.43 µM | SN12C 23.5 µM | NCI-H460 8.99 µM | HT-29 > 100 µM | NCI-H522 11 µM | IGROV-1 83.4 µM | HCT-116 53.3 µM | OVCAR-3 65.8 µM | KM-20L2 > 100 µM | K562 37.2 µM | UACC-257 38.2 µM | ACHN 2.61 µM | LXFL 529 > 100 µM | UACC-62 2.88 µM | TK-10 67.9 µM

O=C(Nc1ccccc1)N1C(c2ccccc2)=N[C@@H](c2ccccc2)[C@@H]1c1ccccc1
inactive: NCI-H226 23.3 µM | NCI-H23 23.7 µM | SN12C 21.9 µM | NCI-H460 31.4 µM | HT-29 16.6 µM | CAKI-1 21.5 µM | IGROV-1 22.4 µM | HCT-116 17.6 µM | OVCAR-3 22.9 µM | KM-20L2 18.1 µM | K562 17.7 µM | UACC-257 19 µM | ACHN 15.3 µM | LXFL 529 15.6 µM | UACC-62 19.9 µM | TK-10 31.3 µM

C[C@]12CC[C@H](O)CC1=CC[C@@H]1C2CC[C@]2(C)Nc3c(cnn3-c3ccccc3)CC12 (some centres not stated)
inactive: NCI-H226 8.57 µM | NCI-H23 3.88 µM | NCI-H460 2.72 µM | HT-29 1.89 µM | CAKI-1 2.96 µM | IGROV-1 7.05 µM | HCT-116 3.01 µM | OVCAR-3 5.9 µM | KM-20L2 1.38 µM | K562 2.61 µM | UACC-257 3.78 µM | ACHN 3.26 µM | LXFL 529 4.06 µM | UACC-62 4.14 µM | TK-10 9.48 µM

CCOC(=O)c1ccc(N2C(=O)/C(=C\OC)c3ccccc3C2=O)cc1
inactive: NCI-H226 54 µM | NCI-H23 37.2 µM | SN12C 24.5 µM | HT-29 44.3 µM | NCI-H522 29 µM | CAKI-1 33.4 µM | IGROV-1 25.2 µM | HCT-116 34.6 µM | OVCAR-3 36.6 µM | KM-20L2 37 µM | K562 34.2 µM | UACC-257 38.5 µM | ACHN 42.4 µM | LXFL 529 23.6 µM | UACC-62 23.2 µM | TK-10 15.1 µM

O[C@]12c3ccccc3C1CCCCC2N1CCOCC1 (some centres not stated)
inactive: NCI-H226 > 100 µM | NCI-H23 > 100 µM | SN12C > 100 µM | NCI-H460 > 100 µM | HT-29 > 100 µM | NCI-H522 > 100 µM | HCT-116 > 100 µM | KM-20L2 > 100 µM | K562 > 100 µM | UACC-257 > 100 µM | ACHN > 100 µM | LXFL 529 > 100 µM | UACC-62 > 100 µM | TK-10 > 100 µM
